The source made the active and inactive calls. No rule for the calls is given here.
Assay: Quorum luxo inducers, light production, v cholerae bh1651 luxod47e, confirmatory dose response (AID 624254)
Conditions: V. cholerae BH1651 luxOD47E, luciferase light induction, 6 h; at 50 µM (top of the series)

SMILES	activation (light increase)
COc1ccc(OC)c(NC(=O)COC(=O)c2cc3c(s2)CCC3)c1	inactive
CCN1CCN(C(=O)c2ccc(COc3ccc(Cl)cc3)o2)CC1	inactive
COc1ccc2nc(SC(C)C(=O)NCC(=O)Nc3ccc(F)c(F)c3F)[nH]c2c1 (stereo not drawn)	inactive
COC(=O)c1cnn(-c2nc(-c3ccccc3)cs2)c1N	inactive
CCCCOCC(O)CN1CCN(C(C)=O)CC1 (stereo not drawn)	inactive
C[C@H](NC(=O)c1ccco1)C(=O)Nc1ccc(S(=O)(=O)N2CCCC2)cc1	inactive
O=C(Oc1ccc(=O)n(-c2ccccc2)n1)c1cccc(Cl)c1	inactive
CCc1nc(NCCCN2CCOCC2)c2oc3ccccc3c2n1	inactive
CCCn1nnnc1NCc1ccc(N(C)C)cc1	inactive
CCn1c(SCC(=O)OC2CCCCC2)nnc1-c1ccncc1	inactive
O=S(=O)(Nc1ccc(-c2csc(-c3ccccc3)n2)cc1)c1ccc(F)cc1	inactive
COCCSc1ccccc1C(=O)Nc1nnc(COC)s1	inactive
Nc1nnc(-c2ccc(Cl)cc2Cl)s1	inactive
CC(=O)Nc1ccccc1NS(=O)(=O)c1cn(C)cn1	inactive
Cc1ccccc1C(=O)Nc1cccc(N)c1	inactive
CN(C)CC(C)(C)CNC(=O)c1cc(=O)c2ccccc2o1	inactive
COc1ccc(C(CNC(=O)c2ccc(-c3cccc(C(F)(F)F)c3)o2)N2CCOCC2)cc1 (stereo not drawn)	inactive
COc1ccc(S(=O)(=O)N2CCSC2c2ccc(N)cc2)cc1 (stereo not drawn)	inactive
COc1cc(C2N(c3ccccn3)C(=O)C3CCCN32)cc(OC)c1OC (stereo not drawn)	inactive
CCOc1ccc(S(=O)(=O)Nc2ccc(C(=O)NCC(c3ccco3)N3CCCCC3)cc2)cc1 (stereo not drawn)	inactive
CCCCOC(=O)n1c(=O)oc2ccccc21	inactive
Cc1ccc2nc(SCc3nnc(-c4ccccc4Br)o3)[nH]c2c1	inactive
O=c1c2cc(N3CCOCC3)ccc2[nH]c(=S)n1CC1CCCO1 (stereo not drawn)	inactive
CC(C)Oc1ccc(C(=O)Nc2cc(S(=O)(=O)N3CCOCC3)ccc2N2CCOCC2)cc1	inactive
O=C(COC(=O)C1CCN(c2ccc(C(F)(F)F)cn2)CC1)NC1CCCCC1	inactive

SMILES	activation (light increase)
Cc1cc(C(=O)OCC(=O)NC2CCCCC2)c(C)o1	inactive
O=S(=O)(Nc1ccc(-c2ccc3nncn3n2)cc1)c1ccc(Cl)s1	inactive
O=C(CNc1cc(S(=O)(=O)N2CCOCC2)ccc1N1CCCC1)Nc1ccc(Cl)cc1	inactive
O=C(c1cc2cc(Cl)ccc2oc1=O)N1CCCC1	inactive
FC(F)(F)c1nnc2sc(-c3cccs3)nn12	inactive
CCC(C)NC(=O)Cc1ccc(-c2ccccc2)cc1 (stereo not drawn)	inactive
C[C@H]1CN([C@@H](C)CO)C(=O)c2cccc(NC(=O)C3CC3)c2O[C@H]1CN(C)S(=O)(=O)c1cccs1	inactive
COc1cccc(-c2nc(OC(C)C)c3ccccc3n2)c1	inactive
COc1ccc(-c2cc(CCCC(=O)NCCc3cc(OC)ccc3OC)no2)cc1	inactive
N#Cc1ccccc1NC(=O)CNc1ccccc1N1CCCCC1	inactive
N#Cc1nc(-c2ccc(OCc3ccc(Cl)cc3)cc2)oc1NCc1cccnc1	inactive
O=C(COC(=O)c1ccc(Br)cc1)NC1CCCC1	inactive
COc1ccc(-c2nnc3c4ccccc4c(C)nn23)cc1	inactive
Cc1ccc(OCCNC(=O)c2ccc(C)o2)cc1	inactive
Cc1ccc(S(=O)(=O)N(C)c2ccc(OCC(=O)N3CCCCC3)cc2)cc1	inactive
CCC(O)(CCN1CCCCC1)c1ccccc1 (stereo not drawn)	inactive
CCOc1ccc2nc(SCC(=O)NC(=O)NCc3ccco3)[nH]c2c1	inactive
CCOC(=O)Nc1ccc(S(=O)(=O)Nc2cc(C)nc(C)n2)cc1	inactive
COc1ccc(-c2nnn(CC(=O)c3ccc4c(c3)OCCO4)n2)cc1OC	inactive
CC1(C(=O)N2CCN(c3ccc([N+](=O)[O-])cc3)CC2)CC1(Cl)Cl (stereo not drawn)	inactive
CCCCNC(=O)COC(=O)c1ccc(N(C)C)cc1	inactive
C=CCN1C(=O)c2ccc(C(=O)N(CC)CC(=O)Nc3cc(Cl)ccc3C)cc2C1=O	inactive
CCCCn1c(=O)[nH]c(=O)c2c1nc(COc1ccc(C#N)cc1)n2CCC	inactive
CCC(=O)c1ccc(N2CCCCCC2)c(F)c1	inactive
Cc1ccc(Oc2ccc(S(=O)(=O)N3CCOCC3)cc2C(N)=O)c(-n2nc3ccccc3n2)c1	inactive

SMILES	activation (light increase)
CC(=O)N1CCC(=O)N(C(C)C)c2ccccc21	inactive
O=C(COC(=O)c1ccc(O)cc1)c1ccc2c(c1)OCCO2	inactive
Cn1cnc(S(=O)(=O)Nc2ccc(OC(F)(F)F)cc2)c1	inactive
Cc1ccc(Oc2ccc(Cl)cc2NC(=O)c2cnccn2)cc1	inactive
C[C@H](CO)N1C[C@H](C)[C@@H](CN(C)S(=O)(=O)c2cccs2)Oc2c(NC(=O)C3CC3)cccc2C1=O	inactive
CCc1ccc(-c2ccc(C(=O)O)n2CC)cc1	inactive
Cn1cnc(S(=O)(=O)Nc2ccc(Oc3ccccc3)cc2)c1	inactive
CCN(CC)c1nc(-c2ccccc2)cc(C(F)(F)F)c1C#N	inactive
CC(=O)Nc1nonc1NC(C)=O	inactive
O=C(NCC1CCCO1)C1CCN(C(=O)c2ccc(Cl)cc2)CC1 (stereo not drawn)	inactive
C[C@H]1CN([C@@H](C)CO)C(=O)c2cccc(NC(=O)Nc3ccc4c(c3)OCO4)c2O[C@H]1CN(C)S(=O)(=O)c1ccccc1	inactive
C[C@H](CO)N1C[C@H](C)[C@@H](CN(C)S(=O)(=O)c2ccc(F)cc2)Oc2c(NC(=O)Nc3ccc4c(c3)OCO4)cccc2C1=O	inactive
Cc1cccc(OCC(=O)N(C)CCc2ccccn2)c1	inactive
CCc1ccc(OCCNC(=O)c2cccs2)cc1	inactive
Cc1ccc(CN2C(=O)CCC2C(=O)NCCN(CC(C)C)CC(C)C)cc1 (stereo not drawn)	inactive
CCCCN(C)CCNC(=O)c1ccc2c(c1)NC(=O)C(N1CCCCC1)S2 (stereo not drawn)	inactive
CC1CN(C(=O)COC(=O)c2cccc(NS(=O)(=O)c3ccccc3)c2)CC(C)O1 (stereo not drawn)	inactive
COC(=O)[C@H]1C[C@H](C(=O)O)[C@@H](C)C1(C)C	inactive
COc1ccc(C(=O)O)cc1S(=O)(=O)Nc1cccc(C(F)(F)F)c1	inactive
CCOC(=O)C1CCCN(Cc2cccc(Cl)c2)C1 (stereo not drawn)	inactive
O=c1oc2c(CN3CCOCC3)c(O)c(Cl)cc2c2c1CCC2	inactive
CCCn1nnnc1NCc1ccc(C(C)C)cc1	inactive
CCNC(=O)CCSc1nnc(-c2ccco2)o1	inactive
COc1cc2c(cc1OC)C(c1ccc(C)cc1)NC(=O)C2 (stereo not drawn)	inactive
COc1ccc(C(=O)NC2CCSC2=O)cc1 (stereo not drawn)	inactive

SMILES	activation (light increase)
Cc1cnc(C(=O)OCC(=O)NC(=O)NC(C)C)cn1	inactive
Cc1cccc(N2CCN(C(=O)C34CC5CC(CC(C5)C3)C4)CC2)c1C	inactive
CCCOC(=O)c1ccc(NC(=O)C2CCCO2)cc1 (stereo not drawn)	inactive
CSc1ccccc1NC(=O)COc1ccc(S(=O)(=O)N2CCCC2)cc1	inactive
CC(=O)c1ccc(Oc2cc(C)nc(NCc3ccccc3)n2)cc1	inactive
COc1ccc2c(c1)CCC(C)N2S(=O)(=O)c1ccc(C2CNC(=O)C2)cc1 (stereo not drawn)	inactive
COc1ccc(NC(=O)COc2cccc3c2CCNC3=O)cc1	inactive
CCOC(=O)Cc1c(C)[nH]c(=S)[nH]c1=O	inactive
CCOC(=O)C1(CCOc2ccccc2)CCN(Cc2cc(OC)cc(OC)c2)CC1	inactive
O=C(Nc1nnc(C2CC2)s1)c1cccc(S(=O)(=O)N2CCc3ccccc32)c1	inactive
c1ccc(-c2ccc(CN3Cc4ccccc4-n4nncc4C3)cc2)cc1	inactive
CC(OC(=O)c1ccc(-n2cnnn2)cc1)C(=O)N(C)c1ccccc1 (stereo not drawn)	inactive
COCCCNC(=O)c1ccc2c(=O)n(C3CCCC3)c(=S)[nH]c2c1	inactive
CCN(CC(=O)Nc1c(F)cccc1F)C(=O)C1CC(=O)N(c2ccccc2OC)C1 (stereo not drawn)	inactive
CCc1nnc(NC(=O)C2CC(=O)N(c3ccc(C)cc3)C2)s1 (stereo not drawn)	inactive
CCS(=O)(=O)Nc1ccc(C(=O)OC)cc1	inactive
CC(=O)C(CC(=O)N1CCCc2ccccc21)C(=O)Nc1ccc(F)cc1 (stereo not drawn)	inactive
CCOC(=O)c1nnn(-c2nonc2N)c1CN1CCc2ccccc2C1	inactive
O=C(COC(=O)/C=C/c1cccc(F)c1)NC1CCCC1	inactive
COc1ccc(S(=O)(=O)N2CCCC(C(=O)NCc3ccncc3)C2)cc1 (stereo not drawn)	inactive
Cc1ccc(S(=O)(=O)Nc2cc(C(=O)NCCN(C)C)ccc2N2CCCCC2)cc1	inactive
CC1CCCN(C(=O)Cn2c(-c3nonc3N)nc3ccccc32)C1 (stereo not drawn)	inactive
C[C@@H]1CN([C@H](C)CO)C(=O)c2cccc(NC(=O)C3CC3)c2O[C@@H]1CN(C)S(=O)(=O)c1cccs1	inactive

Source: PubChem BioAssay AID624254 (Broad Institute, 2012)
